Laboratory results: US20250197343A1, “CATIONIC LIPID” (TAKEDA PHARMACEUTICAL COMPANY LIMITED, priority 2021, published 2025)

Tests used:
[1] = system: ICrl:CD1 (ICR) mice; assay: Mouse bioluminescence imaging evaluation (Test Example 1); type: in vivo; settings: Luc DNA-encapsulated lipid nanoparticles 10 mL/kg i.v. to ICR mice; IVIS total flux 15 minutes after luciferin i.p.
Method: The Luc DNA-encapsulated lipid nanopatricles obtained in the aforesaid Production Example were intravenously administered to the tails of ICrl:CD1 (ICR) mice (10 mL/kg i.v.). After administration of the lipid particles, luciferin (15 mg/mL) was administered to the mice (10 mL/kg i.p.), which were loaded in an IVIS (in vivo imaging system) apparatus (manufactured by PerkinElmer, Inc.) under isoflurane inhalation anesthesia. Luminescence images of the mice were taken ventrally (in a supine position) 15 minutes after luciferin administration. The luminescence was digitized with the software of IVIS, followed by evaluation using the value of total flux. Higher luminescence means strong expression of the protein encoded by the DNA encapsulate in the lipid particle. In Table 2, higher luminescence is indicated on a scale of A, B and C in order. A represents luminescence of 3.0E+07 or more, B represents luminescence of 1.0E+0.7 or more and less than 3.0E+07, and C represents luminescence of less than 1.0E+07.

[2] = Rate of encapsulation of Luc DNA in lipid nanoparticles; type: physicochemical; design: unit: %; settings: Luc DNA-encapsulated lipid nanoparticles; cationic lipid:DPPC:cholesterol:GM-020=60:10.6:28:1.4 molar ratio
Description: The concentration and rate of encapsulation of the nucleic acid (e.g., siRNA or mRNA) in the composition of the present invention can be measured by a known approach. For example, the nucleic acid is fluorescently labeled using Quant-iT™ RiboGreen® (Invitrogen Corp.), and the fluorescence intensity can be measured to determine the concentration and the rate of encapsulation. The concentration of the nucleic acid in the composition can be calculated using a calibration curve prepared from aqueous nucleic acid solutions having known concentrations. The rate of encapsulation can be calculated on the basis of the difference in fluorescence intensity between the presence and absence of addition of Triton-X 100 (surfactant for disrupting the lipid particle). The concentration of the nucleic acid in the composition refers to the total concentration of a nucleic acid encapsulated in the lipid particle and an unencapsulated nucleic acid. The rate of encapsulation refers to the ratio of the nucleic acid encapsulated in the lipid particle to all nucleic acids in the composition.
(§1) A lipid mixture containing a cationic lipid of the Examples shown in Table 2 (cationic lipid:DPPC:cholesterol:GM-020=60:10.6:28:1.4, molar ratio) was dissolved in 90% of EtOH and 10% of water to obtain a 15.0 mg/ml lipid solution. Luciferase (luc) DNA (manufactured by Nature Technology Corp.) was dissolved in a 10 mM MES buffer solution (pH 5.5) to obtain a 0.3 mg/ml nucleic acid solution. The obtained lipid solution and nucleic acid solution were mixed at a flow rate ratio of 3 ml/min:6 ml/min at room temperature using NanoAssemblr (manufactured by Precision NanoSystems Inc.) to obtain a dispersion containing Luc DNA-encapsulated lipid nanoparticles. The obtained dispersion was dialyzed against water at room temperature for 1 hour and against PBS at 4° C. for 23 hours using Slyde-A-Lyzer (molecular weight cutoff: 20 K, Thermo Fischer Scientific Inc.). Subsequently, the dialysate was filtered through a 0.2 µm syringe filter (Iwaki). A 60% solution of sucrose in PBS was added thereto, and the mixture was preserved as a 20% solution of sucrose in PBS at −80° C. Analysis results of particle size and rate of encapsulation of the Luc DNA-encapsulated lipid nanoparticles are also shown in Table 2.

[3] = Particle size of Luc DNA-encapsulated lipid nanoparticles; type: physicochemical; settings: cationic lipid:DPPC:cholesterol:GM-020=60:10.6:28:1.4 molar ratio
Description: The particle size of the lipid particle (in the composition) can be measured by a known approach. For example, the particle size can be calculated as a Z-average particle size by the cumulant analysis of an autocorrelation function using a particle size measurement apparatus Zetasizer Nano ZS (Malvern Instruments) based on a dynamic light scattering measurement technique. The particle size (average particle size) of the lipid particle (in the composition) is, for example, 10 to 200 nm, preferably 60 to 170 nm.
as §1

SMILES	Rate of encapsulation [2]	Particle size (nm) [3] [nm]	Luminescence [1]
CCCCCC(CCCCC)CC(=O)OCC(COC(=O)CCCCCCCC(=O)OC)(COC(=O)CCCCCCCC(=O)OC)COC(=O)CCCN(C)C [Example 35, 1,1′-[2-({[4-(Dimethylamino)butanoyl]oxy}methyl)-2-{[(3-pentyloctanoyl)oxy]methyl}propane-1,3-diyl] 9,9′-dimethyl dinonanedioate]	96.1	95.1	B (B represents luminescence of 1.0E+0.7 or more and less than 3.0E+07)
CCCCCC(CCCCC)CC(=O)OCC(COC(=O)CCCCCCCC(=O)OCCCC)(COC(=O)CCCCCCCC(=O)OCCCC)COC(=O)CCCN(C)C [Example 33, 1,1′-Dibutyl 9,9′-[2-({[4-(dimethylamino)butanoyl]oxy}methyl)-2-{[(3-pentyloctanoyl)oxy]methyl}propane-1,3-diyl] dinonanedioate]	89.9	145.7	B (B represents luminescence of 1.0E+0.7 or more and less than 3.0E+07)
CCCCCCCCCOC(=O)CCCCC(=O)OCC(COC(=O)CCCCC(=O)OCCCCCCCCC)(COC(=O)CCCN(C)C)COC(=O)CC(CCCCC)CCCCC [Example 44, 1,1′-[2-({[4-(Dimethylamino)butanoyl]oxy}methyl)-2-{[(3-pentyloctanoyl)oxy]methyl}propane-1,3-diyl] 6,6′-dinonyl dihexanedioate]	96.3	132.3	A (A represents luminescence of 3.0E+07 or more)
CCCCCOC(=O)CCCCCCCC(=O)OCC(COC(=O)CCCCCCCC(=O)OCCCCC)(COC(=O)CCCCCCCC(=O)OCCCCC)COC(=O)CCCN(C)C [Example 55, 1,1′-[2-({[4-(Dimethylamino)butanoyl]oxy}methyl)-2-({[9-oxo-9-(pentyloxy)nonanoyl]oxy}methyl)propane-1,3-diyl] 9,9′-dipentyl dinonanedioate]	79.7	186.2	C (C represents luminescence of less than 1.0E+07)
CCCCCC(CCCCC)CC(=O)OCC(COC(=O)CCCCC(=O)OCC(CCC)CCC)(COC(=O)CCCCC(=O)OCC(CCC)CCC)COC(=O)CCCN(CC)C(C)C [Example 116, 1,1′-(2-[({4-[Ethyl(propan-2-yl)amino]butanoyl}oxy)methyl]-2-{[(3-pentyloctanoyl)oxy]methyl}propane-1,3-diyl) 6,6′-bis(2-propylpentyl) dihexanedioate]	97.0	122.0	B (B represents luminescence of 1.0E+0.7 or more and less than 3.0E+07)
CCCCCC(CCCCC)COC(=O)CCC(=O)OCC(COC(=O)CCCN(C)C)(COC(=O)CC(CCCCC)CCCCC)COC(=O)CC(CCCCC)CCCCC [Example 96, 2-({[4-(Dimethylamino)butanoyl]oxy}methyl)-3-[(3-pentyloctanoyl)oxy]-2-{[(3-pentyloctanoyl)oxy]methyl}propyl 2-pentylheptyl butanedioate]	98.8	74.2	B (B represents luminescence of 1.0E+0.7 or more and less than 3.0E+07)
CCCCCCCOC(=O)CCCCC(=O)OCC(COC(=O)CCCCC(=O)OCCCCCCC)(COC(=O)CCCN(C)CCCO)COC(=O)CC(CCCCC)CCCCC [Example 94, 1,1′-Diheptyl 6,6′-(2-[({4-[(3-hydroxypropyl)(methyl)amino]butanoyl}oxy)methyl]-2-{[(3-pentyloctanoyl)oxy]methyl}propane-1,3-diyl) dihexanedioate]	93.0	129.4	C (C represents luminescence of less than 1.0E+07)
CCCCCCCOC(=O)CCCCCCCC(=O)OCC(COC(=O)CCCCCCCC(=O)OCCCCCCC)(COC(=O)CCCN(C)C)COC(=O)CC(CCCCC)CCCCC [Example 60, 1,1′-[2-({[4-(Dimethylamino)butanoyl]oxy}methyl)-2-{[(3-pentyloctanoyl)oxy]methyl}propane-1,3-diyl] 9,9′-diheptyl dinonanedioate]	77.6	143.9	A (A represents luminescence of 3.0E+07 or more)
CCCCCCCCOC(=O)CCCCC(=O)OCC(COC(=O)CCCCC(=O)OCCCCCCCC)(COC(=O)CCCN(C)C)COC(=O)CC(CCCCC)CCCCC [Example 43, 1,1′-[2-({[4-(Dimethylamino)butanoyl]oxy}methyl)-2-{[(3-pentyloctanoyl)oxy]methyl}propane-1,3-diyl] 6,6′-dioctyl dihexanedioate]	96.0	126.7	A (A represents luminescence of 3.0E+07 or more)
CCCCCCCOC(=O)CCCCC(=O)OCC(COC(=O)CCCCC(=O)OCCCCCCC)(COC(=O)CCN(C)C)COC(=O)CC(CCCCC)CCCCC [Example 12, 1,1′-(2-{[(N,N-Dimethyl-beta-alanyl)oxy]methyl}-2-{[(3-pentyloctanoyl)oxy]methyl}propane-1,3-diyl) 6,6′-diheptyl dihexanedioate]	95.7	89.5	C (C represents luminescence of less than 1.0E+07)

The next lines start with results.

Rate of encapsulation [2]	Particle size (nm) [3] [nm]	SMILES	Luminescence [1]
96.0	112.8	CCCCCCCCOC(=O)CCCCC(=O)OCC(COC(=O)CCCN(C)C)(COC(=O)CC(CCCCC)CCCCC)COC(=O)CC(CCCCC)CCCCC [Example 49, 2-({[4-(Dimethylamino)butanoyl]oxy}methyl)-3-[(3-pentyloctanoyl)oxy]-2-{[(3-pentyloctanoyl)oxy]methyl}propyl octyl hexanedioate]	B (B represents luminescence of 1.0E+0.7 or more and less than 3.0E+07)
98.2	90.9	CCCCCCOC(=O)CCCCCCCC(=O)OCC(COC(=O)CCCN(C)C)(COC(=O)CC(CCCCC)CCCCC)COC(=O)CC(CCCCC)CCCCC [Example 63, 2-({[4-(Dimethylamino)butanoyl]oxy}methyl)-3-[(3-pentyloctanoyl)oxy]-2-{[(3-pentyloctanoyl)oxy]methyl}propyl hexyl nonanedioate]	C (C represents luminescence of less than 1.0E+07)
95.4	89.8	CCCCCC(CCCCC)CC(=O)OCC(COC(=O)CCCCC(=O)OCCCC)(COC(=O)CCN(C)C)COC(=O)CC(CCCCC)CCCCC [Example 19, Butyl 2-{[(N,N-dimethyl-beta-alanyl)oxy]methyl}-3-[(3-pentyloctanoyl)oxy]-2-{[(3-pentyloctanoyl)oxy]methyl}propyl hexanedioate]	B (B represents luminescence of 1.0E+0.7 or more and less than 3.0E+07)
97.1	97.9	CCCCCCCOC(=O)CCCCC(=O)OCC(COC(=O)CCCN(C)C)(COC(=O)CC(CCC)CCCCCCC)COC(=O)CC(CCC)CCCCCCC (stereo not drawn) [Example 31, 2-({[4-(Dimethylamino)butanoyl]oxy}methyl)-3-[(3-propyldecanoyl)oxy]-2-{[(3-propyldecanoyl)oxy]methyl}propyl heptyl hexanedioate]	A (A represents luminescence of 3.0E+07 or more)
97.2	104.2	CCCCCC(CCCCC)CC(=O)OCC(COC(=O)CCCCC(=O)OCCCC)(COC(=O)CCCN(C)C)COC(=O)CC(CCCCC)CCCCC [Example 20, Butyl 2-({[4-(dimethylamino)butanoyl]oxy}methyl)-3-[(3-pentyloctanoyl)oxy]-2-{[(3-pentyloctanoyl)oxy]methyl}propyl hexanedioate]	B (B represents luminescence of 1.0E+0.7 or more and less than 3.0E+07)
